Experimental findings from patent publication US11925178B1, “2′-alkyloxy-6′-phenyl[3,4′-bipyridine]-3′-carbonitrile as an insecticidal agent against Aphis craccivora” (priority 2023, dated 2024) are described below.

Assay [1] relates to adults of cowpea aphid (Aphis craccivora). Put plainly: Leaf dipping insecticidal bioassay, adults of cowpea aphid. The class given is in vivo. The following applies: 24 h; for LC50: Aphis craccivora, foliar; for Toxic ratio: Acetamiprid's LC50 / the compound's LC50. As to the method:
(§1) The original batches of cowpea aphid insects were collected from pest's laboratory, Plant Protection Research Institute, Agricultural Research Center. The target compounds were screened for their insecticidal activity towards nymphs and adults of cowpea aphid.
(§2) The insecticidal activities of compounds 4 and 5 were measured by using leaf dipping method under the same reported laboratory conditions. Five concentrations of compound 4, 5 and 0.1% Tween-80 as a surfactant were used. Nearly the same size 30 nymphs and 30 adults of cowpea aphid insects were used for dipping for 10 second in every concentration of each compound (repeat three times). Insects which tested were allowed to stand to dry at room temperature for about half an hour. In the control experiment, the insects were dunked in distilled water and 0.1% tween-80 only. These applications were carried out at 5% relative humidity, and at a temperature of 25° C. After the used insect had dried, they were transferred to glass jars containing water. With a new binocular microscope, the aphid mortality was taken after 24 hrs of treatment. Any aphid that was unable to move was considered dead. The LC50 values used to evaluate the insecticidal activity were estimated by probit analysis.

Assay [2] concerns nymphs of cowpea aphid (Aphis craccivora). Nature of the assay: Leaf dipping insecticidal bioassay, nymphs of cowpea aphid. The class given is in vivo. The following applies: 24 h; for LC50: Aphis craccivora, foliar; for Toxic ratio: Acetamiprid's LC50 / the compound's LC50. On the procedure:
as §1, §2

Setting [3] is: adults, after 24 h of treatment, leaf dipping, probit analysis, read-out: LC50.
The mark [4] stands for this setting: nymphs, after 24 h of treatment, leaf dipping, probit analysis, read-out: LC50.

Values after ≈ are worked out from the molar mass of the structure shown. Like-named read-outs stand apart in the source and are kept apart here.

Turning to `C/C(=N\C#N)N(C)Cc1ccc(Cl)nc1` [Acetamiprid, acetamiprid, reference compound], the LC50 was found to be 0.267 µg/mL (≈ 1.2 µM) in assay [1] and 0.045 µg/mL (≈ 0.202 µM) in assay [2]. Also, the Toxic ratio in assay [1] (adults) and in assay [2] (nymphs) was 1 each time.

In the case of `CCOc1nc(-c2ccccc2)cc(-c2cccnc2)c1C#N` [Compound 4, 2′-Ethoxy-6′-phenyl[3,4′-bipyridine]-3′-carbonitrile], the figures for the LC50 in assay [1] (setting [3]) and in assay [2] (setting [4]) were about 1.3 µg/mL (≈ 4.32 µM) and about 0.0781 µg/mL (≈ 0.259 µM), respectively. The Toxic ratio in assay [1] (adults) was determined as 0.205; in assay [2] (nymphs), 0.576.

With `COc1nc(-c2ccccc2)cc(-c2cccnc2)c1C#N` [Compound 5, 2′-Methoxy-6′-phenyl[3,4′-bipyridine]-3′-carbonitrile], the LC50 in assay [1] (setting [3]) was 1.4 µg/mL (≈ 4.87 µM); in assay [2] (setting [4]), about 0.0842 µg/mL (≈ 0.293 µM). For the same compound, the values for the Toxic ratio in assay [1] (adults) and in assay [2] (nymphs) were 0.190 and 0.0534, respectively.

Broadly, the LC50 is the concentration lethal to half of the exposed cells or organisms.
